Data reported in PMC8371902, “Phase 1 study of M2698, a p70S6K/AKT dual inhibitor, in patients with advanced cancer” (Journal of Hematology & Oncology, 2021).

Experiments:
[1] = Plasma pharmacokinetics of M2698, non-compartmental; format: in vivo, human
Method: Plasma PK parameters on days 1 and 15 were calculated using non-compartmental methods.

[2] = Food effect on M2698 pharmacokinetics (fed vs fasted, single 240 mg dose); format: in vivo, human
Method: Food effect was analyzed using an analysis of variance (performed on natural log-transformed values of area under the plasma concentration-time curve from time zero to infinity (AUC0-∞) and maximum plasma concentration (Cmax) including sequence, period, and fasting/fed condition as effect).
Two single doses of 240 mg M2698 were administered 7 days apart (fed then fasted states or vice versa) to assess any effect of food on pharmacokinetics; these patients then continued treatment with either 240 mg/day or 320 mg/day M2698 as part of the dose expansion cohort. (240 mg, n=7; 320 mg, n=5)
^*Fed vs fasting following single dose of 240 mg M2698. Main analysis performed on natural log-transformed values of AUC0-∞ and Cmax including sequence, period and fasting/fed condition as effect. For one of the eight evaluable patients, no AUC under fed conditions was determined.

[3] = day 15, combination with trastuzumab, M2698 160 mg, n=7
[4] = day 15, monotherapy 110 mg, n=3
[5] = day 15, monotherapy 160 mg, n=5
[6] = day 15, monotherapy 200 mg, n=3
[7] = day 15, monotherapy 240 mg, n=7
[8] = day 15, monotherapy 320 mg, n=6
[9] = day 15, monotherapy 380 mg, n=2
[10] = Fasted, single dose of 240 mg, n=8

## NC(=O)c1cccc2c(N[C@H](CN3CCC3)c3ccc(Cl)c(C(F)(F)F)c3)ncnc12 [M2698]
[1]; [3]
  Cmax, GeoMean (GeoCV%): 2560 (52.8) ng/mL
  tmax, median (range): 5.88 (3.05–8.08) hours
[1]; day 15, monotherapy 15 mg, n=3
  AUC0–τ, Geo mean (GeoCV%): 2540 (6.0) ng∙h/mL
  Accumulation ratio (Cmax), Geo mean (GeoCV%): 2.57 (73.6)
  Cmax, GeoMean (GeoCV%): 136 (16.8) ng/mL
  tmax, median (range): 3.00 (2.97–7.50) hours
[1]; day 15, monotherapy 30 mg, n=3
  AUC0–τ, Geo mean (GeoCV%): 5410 (17.8) ng∙h/mL
  Accumulation ratio (Cmax), Geo mean (GeoCV%): 3.19 (41.2)
  Cmax, GeoMean (GeoCV%): 279 (14.5) ng/mL
  tmax, median (range): 4.30 (1.93–6.02) hours
[1]; day 15, monotherapy 60 mg, n=5
  AUC0–τ, Geo mean (GeoCV%): 10,000 (47.7) ng∙h/mL
  Accumulation ratio (Cmax), Geo mean (GeoCV%): 3.03 (60.4)
  Cmax, GeoMean (GeoCV%): 566 (48.5) ng/mL
  tmax, median (range): 5.07 (3.03–7.62) hours
[1]; day 15, monotherapy 75 mg, n=4
  AUC0–τ, Geo mean (GeoCV%): 9440 (39.6) ng∙h/mL
  Accumulation ratio (Cmax), Geo mean (GeoCV%): 3.02 (3.2)
  Cmax, GeoMean (GeoCV%): 533 (47.5) ng/mL
  tmax, median (range): 4.05 (4.03–5.12) hours
[1]; [4]
  AUC0–τ, Geo mean (GeoCV%): 15,500 (46.8) ng∙h/mL
  Accumulation ratio (Cmax), Geo mean (GeoCV%): 3.38 (55.6)
  Cmax, GeoMean (GeoCV%): 831 (43.3) ng/mL
  tmax, median (range): 6.05 (3.00–6.07) hours
[1]; [5]
  AUC0–τ, Geo mean (GeoCV%): 23,700 (43.7) ng∙h/mL
  Accumulation ratio (Cmax), Geo mean (GeoCV%): 2.40 (36.8)
  Cmax, GeoMean (GeoCV%): 1300 (45.1) ng/mL
  tmax, median (range): 4.08 (1.93–6.00) hours
[1]; [6]
  AUC0–τ, Geo mean (GeoCV%): 28,400 (91.6) ng∙h/mL
  Accumulation ratio (Cmax), Geo mean (GeoCV%): 3.21 (63.5)
  Cmax, GeoMean (GeoCV%): 1520 (100.8) ng/mL
  tmax, median (range): 3.77 (3.50–4.05) hours
[1]; [7]
  AUC0–τ, Geo mean (GeoCV%): 31,300 (55.8) ng∙h/mL
  Accumulation ratio (Cmax), Geo mean (GeoCV%): 2.51 (77.8)
  Cmax, GeoMean (GeoCV%): 1920 (48.5) ng/mL
  tmax, median (range): 4.00 (2.95–6.10) hours
[1]; [8]
  AUC0–τ, Geo mean (GeoCV%): 39,700 (52.3) ng∙h/mL
  Accumulation ratio (Cmax), Geo mean (GeoCV%): 2.12 (67.9)
  Cmax, GeoMean (GeoCV%): 2110 (39.6) ng/mL
  tmax, median (range): 5.48 (3.57–6.08) hours
[1]; [9]
  AUC0–τ, Geo mean (GeoCV%): 41,400 (34.5) ng∙h/mL
  Accumulation ratio (Cmax), Geo mean (GeoCV%): 2.20 (97.9)
  Cmax, GeoMean (GeoCV%): 2490 (9.4) ng/mL
  tmax, median (range): 2.50 (2.00–3.00) hours
[1]; highest doses of 240–380 mg
  Area under the curve on day 15: > 30,000 ng h/mL
[1]; in vivo
  Pharmacokinetic profile combined with tamoxifen versus monotherapy: similar
[1]; monotherapy
  Accumulation on day 15 after repeated doses: 2.12–3.38 fold
  Apparent oral clearance (CL/f): ~ 6 L/h
  Terminal half-life: ~ 30 h
[1]; monotherapy, across doses
  Median time to maximum plasma concentration (tmax): 3.08 to 6.28 h
[1]; monotherapy, single and multiple administrations
  Dose proportionality of M2698 exposure: exposure increased proportionally with dose
[1]; versus monotherapy
  M2698 exposure in combination with trastuzumab: relatively higher
[2]; [10]
  AUC0-∞ (90% CI): 40016.18 (22818.47–70175.36) ng.h/mL
  Cmax (90% CI): 769.04 (410.14–1441.99) ng/mL
[2]; Fed, single dose of 240 mg, n=7
  AUC0-∞ (90% CI): 38626.33 (21989.80–67849.37) ng.h/mL
[2]; Fed, single dose of 240 mg, n=8
  Cmax (90% CI): 934.92 (498.61–1753.02) ng/mL
[2]; in vivo
  Food effect on the exposure of M2698: no apparent food effect
[2]; single dose of 240 mg, p=0.3917
  Cmax Fed/fasted ratio (90% CI): 1.2157 (0.8058–1.8341) p=0.3917
[2]; single dose of 240 mg, p=0.6504
  AUC0-∞ Fed/fasted ratio (90% CI): 0.9653 (0.8326–1.1191) p=0.6504
